Source: publication PMC3961306, “Comparison of the Cancer Gene Targeting and Biochemical Selectivities of All Targeted Kinase Inhibitors Approved for Clinical Use” (PLoS ONE, 2014)
Read-outs that look alike come from different tables or passages of the source.

System: forty-four human cancer cell lines
Experiment: Cell proliferation assay (ATPlite, 72 hours) in the 44 cell line Oncolines panel
Format: cell-based
[1] = Homo sapiens, 769-P, cell line 769-P, read-out: cell panel IC50, 769-P
[2] = Homo sapiens, 786-0, cell line 786-0, read-out: cell panel IC50, 786-0
[3] = Homo sapiens, A 172, read-out: cell panel IC50, A-172, cell line A-172
[4] = Homo sapiens, A204, cell line A-204, read-out: cell panel IC50, A-204
[5] = Homo sapiens, A498, read-out: cell panel IC50, A-498, cell line A-498
[6] = Homo sapiens, A549, read-out: cell panel IC50, A-549, cell line A-549
[7] = Homo sapiens, A-375, cell line A375, read-out: cell panel IC50, A375
[8] = Homo sapiens, A-427, read-out: cell panel IC50, A-427, cell line A-427
[9] = Homo sapiens, ACHN, cell line ACHN, read-out: cell panel IC50, ACHN
[10] = Homo sapiens, AN3-CA, cell line AN3 CA, read-out: cell panel IC50, AN3 CA
[11] = Homo sapiens, AU565, read-out: cell panel IC50, AU-565, cell line AU-565
[12] = Homo sapiens, BT-20, cell line BT-20, read-out: cell panel IC50, BT-20
[13] = Homo sapiens, BT-549, read-out: cell panel IC50, BT-549, cell line BT-549
[14] = Homo sapiens, BXPC-3, cell line BxPC-3, read-out: cell panel IC50, BxPC-3
[15] = Homo sapiens, C-33-A, cell line C-33 A, read-out: cell panel IC50, C-33 A
[16] = Homo sapiens, CAL-27, cell line CAL 27, read-out: cell panel IC50, CAL 27
[17] = Homo sapiens, CCRF-CEM, cell line CCRF-CEM, read-out: cell panel IC50, CCRF-CEM
[18] = Homo sapiens, DLD-1, cell line DLD-1, read-out: cell panel IC50, DLD-1
[19] = Homo sapiens, FaDu, cell line FaDu, read-out: cell panel IC50, FaDu
[20] = Homo sapiens, HCT-15, cell line HCT-15, read-out: cell panel IC50, HCT-15
[21] = Homo sapiens, HCT-116, read-out: cell panel IC50, HCT-116, cell line HCT-116
[22] = Homo sapiens, Hs-578T, cell line Hs 578T, read-out: cell panel IC50, Hs 578T
[23] = Homo sapiens, Jurkat E6.1, cell line Jurkat E6.1, read-out: cell panel IC50, Jurkat E6.1
[24] = Homo sapiens, K562, read-out: cell panel IC50, K-562, cell line K-562
[25] = Homo sapiens, LS174T, read-out: cell panel IC50, LS 174T, cell line LS 174T
[26] = Homo sapiens, LoVo, cell line LoVo, read-out: cell panel IC50, LoVo
[27] = Homo sapiens, MG-63, cell line MG-63, read-out: cell panel IC50, MG-63
[28] = Homo sapiens, MOLT-4, cell line MOLT-4, read-out: cell panel IC50, MOLT-4
[29] = Homo sapiens, MeWo, cell line MeWo, read-out: cell panel IC50, MeWo
[30] = Homo sapiens, NCI-H82, cell line NCI-H82, read-out: cell panel IC50, NCI-H82
[31] = Homo sapiens, NCI-H460, cell line NCI-H460, read-out: cell panel IC50, NCI-H460
[32] = Homo sapiens, OVCAR-3, cell line OVCAR-3, read-out: cell panel IC50, OVCAR-3
[33] = Homo sapiens, RPMI-7951, cell line RPMI-7951, read-out: cell panel IC50, RPMI-7951
[34] = Homo sapiens, SHP77, cell line SHP-77, read-out: cell panel IC50, SHP-77
[35] = Homo sapiens, SK-N-AS, cell line SK-N-AS, read-out: cell panel IC50, SK-N-AS
[36] = Homo sapiens, SW48, cell line SW48, read-out: cell panel IC50, SW48
[37] = Homo sapiens, SW480, cell line SW480, read-out: cell panel IC50, SW480
[38] = Homo sapiens, SW-620, cell line SW620, read-out: cell panel IC50, SW620
[39] = Homo sapiens, U2OS, cell line U-2 OS, read-out: cell panel IC50, U-2 OS
[40] = Homo sapiens, U-87 MG, 72 h, U-87 MG cell line, ATPlite, 72 hours, read-out: IC50 in cell proliferation assay (table S5 cellpanel data)
[41] = Homo sapiens, cell line J82, read-out: cell panel IC50, J82
[42] = Homo sapiens, cell line PA-1, read-out: cell panel IC50, PA-1
[43] = Homo sapiens, cell line SJCRH30, read-out: cell panel IC50, SJCRH30
[44] = Homo sapiens, cell line SR, read-out: cell panel IC50, SR

N.N.[Cl][Pt][Cl] [cisplatin] showed an IC50 (U-87 MG cell line, ATPlite, 72 hours, read-out: IC50 in cell proliferation assay (table S5 cellpanel data)) of over 31.6 µM, an IC50 (cell line 769-P, read-out: cell panel IC50, 769-P) of over 31.6 µM and an IC50 (cell line 786-0, read-out: cell panel IC50, 786-0) of 15.1 µM. The IC50 (cell line A375, read-out: cell panel IC50, A375) was 13.3 µM, the IC50 (cell line A-204, read-out: cell panel IC50, A-204) was over 31.6 µM and the IC50 (cell line ACHN, read-out: cell panel IC50, ACHN) was 13.5 µM. The IC50 (cell line AN3 CA, read-out: cell panel IC50, AN3 CA) was 27.5 µM, the IC50 (cell line BT-20, read-out: cell panel IC50, BT-20) was over 31.6 µM and the IC50 (cell line BxPC-3, read-out: cell panel IC50, BxPC-3) was 20.2 µM. It also gave an IC50 (cell line C-33 A, read-out: cell panel IC50, C-33 A) of 13.9 µM, an IC50 (cell line CAL 27, read-out: cell panel IC50, CAL 27) of 6.14 µM and an IC50 (cell line CCRF-CEM, read-out: cell panel IC50, CCRF-CEM) of 10.5 µM. The IC50 (cell line DLD-1, read-out: cell panel IC50, DLD-1) was over 31.6 µM, the IC50 (cell line FaDu, read-out: cell panel IC50, FaDu) was 27.3 µM and the IC50 (cell line HCT-15, read-out: cell panel IC50, HCT-15) was over 31.6 µM. For the same compound, the IC50 (cell line Hs 578T, read-out: cell panel IC50, Hs 578T) was over 31.6 µM, the IC50 (cell line J82, read-out: cell panel IC50, J82) was 10.1 µM and the IC50 (cell line Jurkat E6.1, read-out: cell panel IC50, Jurkat E6.1) was 4.85 µM. For the same compound, the IC50 (cell line LoVo, read-out: cell panel IC50, LoVo) was over 31.6 µM, the IC50 (cell line MG-63, read-out: cell panel IC50, MG-63) was 8.57 µM and the IC50 (cell line MOLT-4, read-out: cell panel IC50, MOLT-4) was 8.09 µM. It also gave an IC50 (cell line MeWo, read-out: cell panel IC50, MeWo) of over 31.6 µM, an IC50 (cell line NCI-H82, read-out: cell panel IC50, NCI-H82) of 19.8 µM and an IC50 (cell line NCI-H460, read-out: cell panel IC50, NCI-H460) of 10 µM. It also gave an IC50 (cell line OVCAR-3, read-out: cell panel IC50, OVCAR-3) of over 31.6 µM, an IC50 (cell line PA-1, read-out: cell panel IC50, PA-1) of 1.42 µM and an IC50 (cell line RPMI-7951, read-out: cell panel IC50, RPMI-7951) of 10 µM. It also gave an IC50 (cell line SHP-77, read-out: cell panel IC50, SHP-77) of over 31.6 µM, an IC50 (cell line SJCRH30, read-out: cell panel IC50, SJCRH30) of over 31.6 µM and an IC50 (cell line SK-N-AS, read-out: cell panel IC50, SK-N-AS) of over 31.6 µM. The IC50 (cell line SR, read-out: cell panel IC50, SR) was 4.45 µM, the IC50 (cell line SW48, read-out: cell panel IC50, SW48) was over 31.6 µM and the IC50 (cell line SW480, read-out: cell panel IC50, SW480) was over 31.6 µM. For the same compound, the IC50 (cell line SW620, read-out: cell panel IC50, SW620) was over 31.6 µM, the IC50 (cell line U-2 OS, read-out: cell panel IC50, U-2 OS) was over 31.6 µM and the IC50 (read-out: cell panel IC50, A-172, cell line A-172) was over 31.6 µM. The IC50 (read-out: cell panel IC50, A-427, cell line A-427) was over 31.6 µM, the IC50 (read-out: cell panel IC50, A-498, cell line A-498) was 23.3 µM and the IC50 (read-out: cell panel IC50, A-549, cell line A-549) was 15.6 µM. The IC50 (read-out: cell panel IC50, AU-565, cell line AU-565) was 15.2 µM, the IC50 (read-out: cell panel IC50, BT-549, cell line BT-549) was 9.55 µM and the IC50 (read-out: cell panel IC50, HCT-116, cell line HCT-116) was over 31.6 µM. It also gave an IC50 (read-out: cell panel IC50, K-562, cell line K-562) of over 31.6 µM and an IC50 (read-out: cell panel IC50, LS 174T, cell line LS 174T) of 8.57 µM.

In the case of CC(=O)O[C@@]12CO[C@@H]1C[C@H](O)[C@@]1(C)C(=O)[C@H](O)C3=C(C)[C@@H](OC(=O)[C@H](O)[C@@H](NC(=O)OC(C)(C)C)c4ccccc4)C[C@@](O)([C@@H](OC(=O)c4ccccc4)[C@H]21)C3(C)C [docetaxel], the IC50 [1] is reported as 0.01 µM, the IC50 [2] is reported as 0.017 µM and the IC50 [3] is reported as 0.00325 µM. It also gave an IC50 [4] of 0.003 µM, an IC50 [5] of 0.013 µM and an IC50 [6] of 0.00214 µM. It also gave an IC50 [7] of 0.00552 µM, an IC50 [8] of 0.0035 µM and an IC50 [9] of 0.021 µM. It also gave an IC50 [10] of 0.000902 µM, an IC50 [11] of 0.00222 µM and an IC50 [12] of 0.009 µM. It also gave an IC50 [13] of 0.00285 µM, an IC50 [14] of 0.00335 µM and an IC50 [15] of 0.00285 µM. It also gave an IC50 [16] of 0.00164 µM, an IC50 [17] of 0.00645 µM and an IC50 [18] of 0.023 µM. For the same compound, the IC50 [19] was 0.00118 µM, the IC50 [20] was 0.058 µM and the IC50 [21] was 0.002 µM. It also gave an IC50 [22] of 0.00213 µM, an IC50 [23] of 0.002 µM and an IC50 [24] of 0.00268 µM. For the same compound, the IC50 [25] was 0.00222 µM, the IC50 [26] was 0.008 µM and the IC50 [27] was 0.00108 µM. For the same compound, the IC50 [28] was 0.00174 µM, the IC50 [29] was 0.00263 µM and the IC50 [30] was 0.00137 µM. It also gave an IC50 [31] of 0.00557 µM, an IC50 [32] of 0.004 µM and an IC50 [33] of 0.0019 µM. The IC50 [34] was 0.138 µM, the IC50 [35] was 0.00337 µM and the IC50 [36] was 0.00339 µM. The IC50 [37] was 0.00334 µM, the IC50 [38] was 0.00225 µM and the IC50 [39] was 0.00741 µM. The IC50 [40] was 0.011 µM, the IC50 [41] was 0.015 µM and the IC50 [42] was 0.000943 µM. It also gave an IC50 [43] of 0.00245 µM and an IC50 [44] of 0.00217 µM.

COc1cc([C@@H]2c3cc4c(cc3[C@@H](O[C@@H]3O[C@@H]5CO[C@@H](C)O[C@H]5[C@H](O)[C@H]3O)[C@H]3COC(=O)[C@H]23)OCO4)cc(OC)c1O [etoposide] was tested, and the IC50 [1] was 0.815 µM, the IC50 [2] was 3.68 µM and the IC50 [3] was 11.1 µM. The IC50 [4] was 0.653 µM, the IC50 [5] was 1.01 µM and the IC50 [6] was 0.859 µM. The IC50 [7] was 0.397 µM, the IC50 [8] was 0.347 µM and the IC50 [9] was 1.17 µM. It also gave an IC50 [10] of 3.18 µM, an IC50 [11] of 0.993 µM and an IC50 [12] of 7.38 µM. For the same compound, the IC50 [13] was 1.18 µM, the IC50 [14] was 10.7 µM and the IC50 [15] was 0.376 µM. The IC50 [16] was 0.525 µM, the IC50 [17] was 0.106 µM and the IC50 [18] was 5.64 µM. For the same compound, the IC50 [19] was 1.35 µM, the IC50 [20] was 1.56 µM and the IC50 [21] was 0.658 µM. For the same compound, the IC50 [22] was 4 µM, the IC50 [23] was 0.24 µM and the IC50 [24] was 1.14 µM. For the same compound, the IC50 [25] was 0.219 µM, the IC50 [26] was 0.739 µM and the IC50 [27] was 2.1 µM. The IC50 [28] was 0.057 µM, the IC50 [29] was 5.24 µM and the IC50 [30] was 1.01 µM. For the same compound, the IC50 [31] was 0.331 µM, the IC50 [32] was 22.4 µM and the IC50 [33] was 0.701 µM. It also gave an IC50 [34] of over 31.6 µM, an IC50 [35] of 1.37 µM and an IC50 [36] of 0.205 µM. For the same compound, the IC50 [37] was 4.65 µM, the IC50 [38] was 4.18 µM and the IC50 [39] was 3.33 µM. It also gave an IC50 [40] of 29.4 µM, an IC50 [41] of 4.94 µM and an IC50 [42] of 0.083 µM. It also gave an IC50 [43] of 1.03 µM and an IC50 [44] of 0.047 µM.
